Assay results from ChEMBL document CHEMBL1201862, “PubChem BioAssay data set” (2004).
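Compound exposure: 48 hours, 5 concentrations, 96-well plates. Abbreviation: GI50, concentration required for 50% inhibition of growth.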 Active and inactive are the calls of the source. No stated cut-off is given here; in the data, active = GI50 up to about 1.1 µM and inactive = higher.

Columns and labels:
Assay in all cases: DTP human tumour cell line panel, 48 h
[1] = system: M14
[2] = system: ACHN
[3] = system: CCRF-CEM
[4] = system: UO-31
[5] = system: CAKI-1
[6] = system: OVCAR-8
[7] = system: SNB-75
[8] = system: HOP-62
[9] = system: MDA-N
[10] = system: SK-MEL-2
[11] = system: SF-539
[12] = system: Malme-3M
[13] = system: RXF 393
[14] = system: IGROV-1
[15] = system: NCI-H226
[16] = system: MCF7
[17] = system: NCI-H522
[18] = system: HCC 2998
[19] = system: UACC-62
[20] = system: HOP-92

Compound | GI50 [1] | GI50 [2] | GI50 [3] | GI50 [4] | GI50 [5] | GI50 [6] | GI50 [7] | GI50 [8] | GI50 [9] | GI50 [10] | GI50 [11] | GI50 [12] | GI50 [13] | GI50 [14] | GI50 [15] | GI50 [16] | GI50 [17] | GI50 [18] | GI50 [19] | GI50 [20]
O=C(Nc1nnc(-c2ccccc2)o1)C(SC(=S)N1CCCCC1)c1ccccc1 (configuration not stated) | 12.6 µM (inactive) | 15.1 µM (inactive) | 3.35 µM (inactive) | 8.79 µM (inactive) | 18.9 µM (inactive) | 26.5 µM (inactive) | 30.4 µM (inactive) | 18.3 µM (inactive) | 20.7 µM (inactive) | 17.7 µM (inactive) | 28.1 µM (inactive) | 26.2 µM (inactive) | 26.3 µM (inactive) | 15.9 µM (inactive) | 25.4 µM (inactive) | 23.4 µM (inactive) | 23.5 µM (inactive) | – | – | –
CNc1cccc2c1C(C)C[C@]1(C)C(=O)Nc3ccccc3[C@H]21 (some centres not stated) | 20.2 µM (inactive) | 23.1 µM (inactive) | 40.7 µM (inactive) | 23.1 µM (inactive) | 26.5 µM (inactive) | 19.1 µM (inactive) | 12.1 µM (inactive) | 19.8 µM (inactive) | 26.6 µM (inactive) | 24.1 µM (inactive) | 42 µM (inactive) | 19.5 µM (inactive) | 23.2 µM (inactive) | 35.8 µM (inactive) | 24.9 µM (inactive) | 22.3 µM (inactive) | 20.5 µM (inactive) | 51.3 µM (inactive) | 37.7 µM (inactive) | –
COC(=O)CC(SCCO)SCCO | > 100 µM (inactive) | > 100 µM (inactive) | > 100 µM (inactive) | > 100 µM (inactive) | > 100 µM (inactive) | > 100 µM (inactive) | 75.7 µM (inactive) | > 100 µM (inactive) | > 100 µM (inactive) | – | > 100 µM (inactive) | > 100 µM (inactive) | > 100 µM (inactive) | > 100 µM (inactive) | > 100 µM (inactive) | – | > 100 µM (inactive) | > 100 µM (inactive) | > 100 µM (inactive) | > 100 µM (inactive)
C=C1C(=O)O[C@H]2C(=O)[C@H](C)CCC/C(C)=C/CC[C@@]3(C)O[C@@H]3C[C@@H]12 | 1.67 µM (inactive) | 1.34 µM (inactive) | 1.18 µM (inactive) | 1.62 µM (inactive) | 1.67 µM (inactive) | 1.69 µM (inactive) | – | 11.6 µM (inactive) | 2.74 µM (inactive) | 5.26 µM (inactive) | 2.39 µM (inactive) | – | – | 2.76 µM (inactive) | 17.7 µM (inactive) | 3.02 µM (inactive) | 1.67 µM (inactive) | – | 5.06 µM (inactive) | 1 µM (active)
N#CC(NCCc1ccccc1)c1ccc(C(C#N)NCCc2ccccc2)cc1 (configuration not stated) | 70.6 µM (inactive) | > 100 µM (inactive) | 17.9 µM (inactive) | 93.1 µM (inactive) | > 100 µM (inactive) | 73.6 µM (inactive) | – | – | – | > 100 µM (inactive) | > 100 µM (inactive) | > 100 µM (inactive) | > 100 µM (inactive) | > 100 µM (inactive) | > 100 µM (inactive) | 55.5 µM (inactive) | > 100 µM (inactive) | 83.9 µM (inactive) | > 100 µM (inactive) | > 100 µM (inactive)
O[C@H]1[C@H]2c3cc4c(cc3CN3CCC(=C[C@@H]1O)[C@H]23)OCO4 [LYCORINE] | 1.86 µM (inactive) | 0.849 µM (active) | 1.82 µM (inactive) | 1.47 µM (inactive) | 1.24 µM (inactive) | 1.53 µM (inactive) | 3.13 µM (inactive) | 1.78 µM (inactive) | 2.59 µM (inactive) | 0.376 µM (active) | 1.8 µM (inactive) | 1.92 µM (inactive) | 0.3 µM (active) | 0.332 µM (active) | 2.76 µM (inactive) | 0.201 µM (active) | 1.05 µM (active) | 2.33 µM (inactive) | 2.08 µM (inactive) | –
O=C(Nc1nc(C23CC4CC(CC(C4)C2)C3)cs1)c1cc2c(ccc3ccccc32)oc1=O | – | > 100 µM (inactive) | > 100 µM (inactive) | > 100 µM (inactive) | > 100 µM (inactive) | > 100 µM (inactive) | – | > 100 µM (inactive) | > 100 µM (inactive) | – | > 100 µM (inactive) | > 100 µM (inactive) | – | > 100 µM (inactive) | > 100 µM (inactive) | > 100 µM (inactive) | > 100 µM (inactive) | > 100 µM (inactive) | – | > 100 µM (inactive)
N#Cc1c(N)nc(-c2ccc(Cl)cc2)c2c1-c1ccccc1S(=O)(=O)CC2 | > 100 µM (inactive) | > 100 µM (inactive) | – | > 100 µM (inactive) | > 100 µM (inactive) | 34 µM (inactive) | > 100 µM (inactive) | 35.7 µM (inactive) | > 100 µM (inactive) | > 100 µM (inactive) | – | > 100 µM (inactive) | – | > 100 µM (inactive) | > 100 µM (inactive) | – | 31 µM (inactive) | > 100 µM (inactive) | > 100 µM (inactive) | > 100 µM (inactive)
